From US9200051B2, “Peptide compound” (TAKEDA PHARMACEUTICAL COMPANY LIMITED, priority 2013, dated 2015)
Square brackets hold non-standard residues; d marks the D form. Peptide text beside a SMILES is read from it. αMeF = C[C@](N)(Cc1ccccc1)C(=O)O; Cha = N[C@@H](CC1CCCCC1)C(=O)O; Aib = CC(C)(N)C(=O)O

Tests used:
Assay type in all cases: cell-based
[1] = target: T1, human glucagon R (Homo sapiens, UniProt P47871); assay: Agonist activity against human glucagon R, CRE-luciferase reporter assay in hGlucagonR/CRE-LUC/CHO-K1 cells
T1 construct: expressed in transfected cells; host or cells: CHO-K1 (CRE-LUC/CHO-K1), plasmid hGlucagonR/pMSRα-neo
From the text: (§1) Evaluation of agonist activity against human GIPR, human GLP-1R and human glucagon R using rise in intracellular cAMP concentration as index
(§2) The luciferase reporter gene having an upstream cAMP response sequence was introduced to CHO-K1 cells to construct CRE-LUC/CHO-K1 cells.
The human glucagon R gene having a sequence identical to the sequence of GenBank Accession No. NM_000160 was cloned into pMSRα-neo vector to prepare hGlucagonR/pMSRα-neo.
The plasmid hGlucagonR/pMSRα-neo obtained in (7) was introduced to the CRE-LUC/CHO-K1 cells obtained in (2) to obtain transformants. Next, a cell line induced to express luciferase, i.e., hGlucagonR/CRE-LUC/CHO-K1 cells, were selected from the obtained transformants by the addition of glucagon.
(§3) The hGIPR/CRE-LUC/CHO-K1 cells were inoculated at a cell density of 25 μL/well (5×10^4 cells/well) to a 384-well white plate (Corning), and cultured overnight in Ham F12 medium containing 10% fetal bovine serum, 100 U/mL penicillin and 100 μg/mL streptomycin in a CO2 incubator of 37° C. A medium containing a test compound was added at a concentration of 5 μL/well to the cells, and the resultant cells were incubated for 4 hours in a CO2 incubator of 37° C. to give the final concentration of 1 μM. PicaGene LT7.5 (Toyo Ink Co., Ltd.) was added thereto at a concentration of 30 μL/well, and the mixture was shaken with light shielded. After 30 minutes, the luciferase activity was measured using a plate reader Envision (PerkinElmer). The luciferase activity in the presence of 10 nM GIP was defined as 100%, and the luciferase activity from the addition of DMSO instead of the test compound was defined as 0%. The GIPR agonist activity was calculated with a rise in intracellular cAMP concentration as an index.
(§4) The glucagon R agonist activity was assayed in the same way as above using the hGlucagonR/CRE-LUC/CHO-K1 cells. The luciferase activity in the presence of 10 nM glucagon was defined as 100%, and the luciferase activity from the addition of DMSO instead of the test compound was defined as 0%. The glucagon agonist activity was calculated with a rise in intracellular cAMP concentration as an index.

[2] = target: T2, human GIPR (Homo sapiens, UniProt P48546); assay: Agonist activity against human GIPR, CRE-luciferase reporter assay (rise in intracellular cAMP) in hGIPR/CRE-LUC/CHO-K1 cells
T2 construct: expressed in transfected cells; host or cells: CHO-K1 (CRE-LUC/CHO-K1), plasmid hGIPR/pMSRα-neo
T2 sequence (P48546 22-466): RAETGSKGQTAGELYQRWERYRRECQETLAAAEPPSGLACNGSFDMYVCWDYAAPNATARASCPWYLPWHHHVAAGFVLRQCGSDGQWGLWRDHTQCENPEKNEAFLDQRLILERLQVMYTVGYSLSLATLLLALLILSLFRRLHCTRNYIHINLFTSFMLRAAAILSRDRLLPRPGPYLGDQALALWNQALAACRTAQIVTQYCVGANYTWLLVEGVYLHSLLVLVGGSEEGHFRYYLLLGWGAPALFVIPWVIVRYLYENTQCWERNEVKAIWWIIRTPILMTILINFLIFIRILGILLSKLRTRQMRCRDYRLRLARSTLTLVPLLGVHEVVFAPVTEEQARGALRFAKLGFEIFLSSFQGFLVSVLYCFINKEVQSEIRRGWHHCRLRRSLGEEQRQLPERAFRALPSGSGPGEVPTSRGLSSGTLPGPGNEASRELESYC
From the text: as §1
The human GIPR gene having a sequence identical to the sequence of GenBank Accession No. U39231 was cloned into pMSRα-neo vector to prepare hGIPR/pMSRα-neo.
as §2
The plasmid hGIPR/pMSRα-neo obtained in (1) was introduced to the CRE-LUC/CHO-K1 cells obtained in (2) to obtain transformants. Next, a cell line induced to express luciferase, i.e., hGIPR/CRE-LUC/CHO-K1 cells, were selected from the obtained transformants by the addition of GIP.
as §3

[3] = target: T3, human GLP-1R (Homo sapiens, UniProt P43220); assay: Agonist activity against human GLP-1R, CRE-luciferase reporter assay in hGLP-1R/CRE-luc/CHO-K1 cells
T3 construct: expressed in transfected cells; host or cells: CHO-K1, plasmids hGLP-1/pIRESneo3 and Cre-luc(Zeo)
From the text: as §1
Four copies of the cAMP response sequence and the Zeocin resistance gene were introduced to pGL3(R2.2)-Basic Vector (Promega) to construct Cre-luc(Zeo) reporter plasmid.
The human GLP-1R gene having a sequence identical to the sequence of GenBank Accession No. NM_002062 was cloned into pIRESneo3 vector to prepare hGLP-1/pIRESneo3.
The Cre-luc(Zeo) obtained in (3) and the plasmid hGLP-1/pIRESneo3 obtained in (5) were introduced to CHO-K1 cells to obtain transformants. Next, a cell line induced to express luciferase, i.e., hGLP-1R/CRE-luc/CHO-K1 cells, were selected from the obtained transformants by the addition of GLP-1.
as §3
as §4, with “The GLP-1R” for “The glucagon R”, “the hGLP-1R/CRE-luc/CHO-K1” for “the hGlucagonR/CRE-LUC/CHO-K1”, “nM GLP-1” for “nM glucagon”, “The GLP-1R” for “The glucagon”

T1 sequence (P47871 26-477): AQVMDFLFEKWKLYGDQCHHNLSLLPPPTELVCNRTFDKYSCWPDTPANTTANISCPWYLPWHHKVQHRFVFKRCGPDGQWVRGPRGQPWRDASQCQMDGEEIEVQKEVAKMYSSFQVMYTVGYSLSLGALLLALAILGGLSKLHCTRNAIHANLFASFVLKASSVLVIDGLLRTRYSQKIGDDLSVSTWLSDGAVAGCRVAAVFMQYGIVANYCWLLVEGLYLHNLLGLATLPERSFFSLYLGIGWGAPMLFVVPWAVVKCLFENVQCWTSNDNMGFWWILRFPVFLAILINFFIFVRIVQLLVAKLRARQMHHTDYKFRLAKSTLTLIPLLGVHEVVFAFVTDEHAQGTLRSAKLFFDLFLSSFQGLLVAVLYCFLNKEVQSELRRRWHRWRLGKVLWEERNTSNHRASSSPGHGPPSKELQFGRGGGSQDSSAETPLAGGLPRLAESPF
T3 sequence (P43220 24-463): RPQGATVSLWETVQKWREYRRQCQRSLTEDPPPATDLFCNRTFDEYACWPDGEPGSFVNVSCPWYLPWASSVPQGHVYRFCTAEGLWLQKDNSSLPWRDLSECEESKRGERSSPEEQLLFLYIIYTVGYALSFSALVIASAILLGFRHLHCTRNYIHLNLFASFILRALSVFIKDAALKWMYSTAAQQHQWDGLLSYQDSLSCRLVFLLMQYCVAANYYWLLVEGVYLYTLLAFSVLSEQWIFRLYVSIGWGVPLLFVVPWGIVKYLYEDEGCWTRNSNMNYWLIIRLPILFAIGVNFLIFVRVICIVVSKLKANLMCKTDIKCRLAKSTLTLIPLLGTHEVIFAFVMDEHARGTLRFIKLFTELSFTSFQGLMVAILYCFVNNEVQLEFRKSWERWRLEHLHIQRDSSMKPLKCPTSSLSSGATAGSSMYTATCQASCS

Compound | EC50 [1] [nM] | EC50 [2] [pM] | EC50 [3] [nM]
CC(C)C[C@H](NC(=O)[C@H](CC(C)C)NC(=O)[C@H](Cc1c[nH]c2ccccc12)NC(=O)[C@H](CCCCN)NC(=O)[C@@H](NC(=O)[C@H](Cc1ccccc1)NC(=O)[C@H](CCC(=O)O)NC(=O)[C@H](C)NC(=O)[C@H](CCC(N)=O)NC(=O)[C@H](C)NC(=O)[C@H](CCC(N)=O)NC(=O)[C@H](CCCCN)NC(=O)[C@H](CC(=O)O)NC(=O)[C@H](CC(C)C)NC(=O)[C@H](CC1CCCCC1)NC(=O)[C@H](CCCCN)NC(=O)C(C)(C)NC(=O)[C@H](Cc1ccc(O)cc1)NC(=O)[C@H](CC(=O)O)NC(=O)[C@H](CO)NC(=O)[C@@H](NC(=O)[C@](C)(Cc1ccccc1)NC(=O)[C@@H](NC(=O)CNC(=O)[C@H](CCC(=O)O)NC(=O)C(C)(C)NC(=O)[C@@H](N)Cc1ccc(O)cc1)[C@@H](C)O)[C@@H](C)O)C(C)C)C(=O)N[C@@H](CCCCN)C(=O)NCC(=O)NCC(=O)N1CCC[C@H]1C(=O)N[C@@H](CO)C(=O)N[C@@H](CO)C(=O)NCC(=O)N[C@@H](C)C(=O)N1CCC[C@H]1C(=O)N1CCC[C@H]1C(=O)N1CCC[C@H]1C(=O)N[C@@H](CO)C(=O)N[C@@H](CCCCN)C(N)=O [Example 16] (H-Y[Aib]EGT[αMeF]TSDY[Aib]K[Cha]LDKQAQAEFVKWLLKGGPSSGAPPPSK-NH2) | > 1000 | 9.1 | 0.015
CC[C@H](C)[C@H](NC(=O)C(C)(C)NC(=O)[C@H](Cc1ccc(O)cc1)NC(=O)[C@H](CC(=O)O)NC(=O)[C@H](CO)NC(=O)[C@@H](NC(=O)[C@](C)(Cc1ccccc1)NC(=O)[C@@H](NC(=O)CNC(=O)[C@H](CCC(=O)O)NC(=O)C(C)(C)NC(=O)[C@@H](N)Cc1ccc(O)cc1)[C@@H](C)O)[C@@H](C)O)C(=O)NC(C)(C)C(=O)N[C@@H](CC(C)C)C(=O)N[C@@H](CC(=O)O)C(=O)N[C@@H](CCCCN)C(=O)N[C@@H](CCC(N)=O)C(=O)N[C@@H](C)C(=O)N[C@@H](CCC(N)=O)C(=O)N[C@@H](CO)C(=O)N[C@@H](CCC(=O)O)C(=O)N[C@@H](Cc1ccccc1)C(=O)N[C@H](C(=O)N[C@@H](CCCCN)C(=O)N[C@@H](Cc1c[nH]c2ccccc12)C(=O)N[C@@H](CC(C)C)C(=O)N[C@@H](CC(C)C)C(=O)N[C@@H](CCCCN)C(=O)NCC(=O)NCC(=O)N1CCC[C@H]1C(=O)N[C@@H](CO)C(=O)N[C@@H](CO)C(=O)NCC(=O)N[C@@H](C)C(=O)N1CCC[C@H]1C(=O)N1CCC[C@H]1C(=O)N1CCC[C@H]1C(=O)N[C@@H](CO)C(N)=O)C(C)C [Example 8] (H-Y[Aib]EGT[αMeF]TSDY[Aib]I[Aib]LDKQAQSEFVKWLLKGGPSSGAPPPS-NH2) | > 1000 | 8 | 0.014
CC[C@H](C)[C@H](NC(=O)[C@H](C)NC(=O)[C@H](Cc1ccc(O)cc1)NC(=O)[C@H](CC(=O)O)NC(=O)[C@H](CO)NC(=O)[C@@H](NC(=O)[C@](C)(Cc1ccccc1)NC(=O)[C@@H](NC(=O)CNC(=O)[C@H](CCC(=O)O)NC(=O)C(C)(C)NC(=O)[C@@H](N)Cc1ccc(O)cc1)[C@@H](C)O)[C@@H](C)O)C(=O)NC(C)(C)C(=O)N[C@@H](CC(C)C)C(=O)N[C@@H](CC(=O)O)C(=O)N[C@@H](CCCCN)C(=O)N[C@@H](CCC(N)=O)C(=O)N[C@@H](C)C(=O)N[C@@H](CCC(N)=O)C(=O)N[C@@H](C)C(=O)N[C@@H](CCC(=O)O)C(=O)N[C@@H](Cc1ccccc1)C(=O)N[C@H](C(=O)N[C@@H](CCCCN)C(=O)N[C@@H](Cc1c[nH]c2ccccc12)C(=O)N[C@@H](CC(C)C)C(=O)N[C@@H](CC(C)C)C(=O)N[C@@H](CCCCN)C(=O)NCC(=O)NCC(=O)N1CCC[C@H]1C(=O)N[C@@H](CO)C(=O)N[C@@H](CO)C(=O)NCC(=O)N[C@@H](C)C(=O)N1CCC[C@H]1C(=O)N1CCC[C@H]1C(=O)N1CCC[C@H]1C(=O)N[C@@H](CO)C(N)=O)C(C)C [Example 5] (H-Y[Aib]EGT[αMeF]TSDYAI[Aib]LDKQAQAEFVKWLLKGGPSSGAPPPS-NH2) | > 1000 | 5.5 | 0.0072
CC[C@H](C)[C@H](NC(=O)[C@H](C)NC(=O)[C@H](Cc1ccc(O)cc1)NC(=O)[C@H](CC(=O)O)NC(=O)[C@H](CO)NC(=O)[C@@H](NC(=O)[C@](C)(Cc1ccccc1)NC(=O)[C@@H](NC(=O)CNC(=O)[C@H](CCC(=O)O)NC(=O)C(C)(C)NC(=O)[C@@H](N)Cc1ccc(O)cc1)[C@@H](C)O)[C@@H](C)O)C(=O)NC(C)(C)C(=O)N[C@@H](CC(C)C)C(=O)N[C@@H](CC(=O)O)C(=O)N[C@@H](CCCCN)C(=O)N[C@@H](CCC(N)=O)C(=O)N[C@@H](C)C(=O)N[C@@H](CCC(N)=O)C(=O)N[C@@H](C)C(=O)N[C@@H](CCC(=O)O)C(=O)N[C@@H](Cc1ccccc1)C(=O)N[C@H](C(=O)N[C@@H](CCCCN)C(=O)N[C@@H](Cc1c[nH]c2ccccc12)C(=O)N[C@@H](CC(C)C)C(=O)N[C@@H](CC(C)C)C(=O)N[C@@H](CCCCN)C(=O)NCC(=O)NCC(=O)N1CCC[C@H]1C(=O)N[C@@H](CO)C(=O)N[C@@H](CO)C(=O)NCC(=O)N[C@@H](C)C(=O)N1CCC[C@H]1C(=O)N1CCC[C@H]1C(=O)N1CCC[C@H]1C(=O)N[C@@H](CO)C(=O)N[C@@H](CCCCN)C(N)=O)C(C)C [Example 1] (H-Y[Aib]EGT[αMeF]TSDYAI[Aib]LDKQAQAEFVKWLLKGGPSSGAPPPSK-NH2) | > 1000 | 8.1 | 0.012
CC(C)C[C@H](NC(=O)[C@H](CC(C)C)NC(=O)[C@H](Cc1c[nH]c2ccccc12)NC(=O)[C@H](CCCCN)NC(=O)[C@@H](NC(=O)[C@H](Cc1ccccc1)NC(=O)[C@H](CCC(=O)O)NC(=O)[C@H](C)NC(=O)[C@H](CCC(N)=O)NC(=O)[C@H](C)NC(=O)[C@H](CCC(N)=O)NC(=O)[C@H](CCCCN)NC(=O)[C@H](CC(=O)O)NC(=O)[C@H](CC(C)C)NC(=O)C(C)(C)NC(=O)[C@H](C)NC(=O)C(C)(C)NC(=O)[C@H](Cc1ccc(O)cc1)NC(=O)[C@H](CC(=O)O)NC(=O)[C@H](CO)NC(=O)[C@@H](NC(=O)[C@](C)(Cc1ccccc1)NC(=O)[C@@H](NC(=O)CNC(=O)[C@H](CCC(=O)O)NC(=O)C(C)(C)NC(=O)[C@@H](N)Cc1ccc(O)cc1)[C@@H](C)O)[C@@H](C)O)C(C)C)C(=O)N[C@@H](CCCCN)C(=O)NCC(=O)NCC(=O)N1CCC[C@H]1C(=O)N[C@@H](CO)C(=O)N[C@@H](CO)C(=O)NCC(=O)N[C@@H](C)C(=O)N1CCC[C@H]1C(=O)N1CCC[C@H]1C(=O)N1CCC[C@H]1C(=O)N[C@@H](CO)C(=O)N[C@@H](CCCCN)C(N)=O [Example 10] (H-Y[Aib]EGT[αMeF]TSDY[Aib]A[Aib]LDKQAQAEFVKWLLKGGPSSGAPPPSK-NH2) | > 1000 | 5.4 | 0.0083
